Laboratory results: patent publication US8481540B2, “Inhibitors of bruton's tyrosine kinase” (Hoffmann-La Roche Inc., priority 2010, dated 2013)
pIC50: −log10 of the molar value. Read-outs that look alike come from different tables or passages of the source.

Experiments:
B cells in human blood = test: Inhibition of B cell activation in whole blood measured by CD69 expression; type: cell-based; conditions: read-out: Human Whole Blood
Summary of the method: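 Heparinised human whole blood was preincubated with compound (nine-point, three-fold dilutions) for 30 min at 37 °C. It was then stimulated with 50 μg/ml goat F(ab′)2 anti-human IgM for 20 hours. CD20/CD69 staining, red-cell lysis and flow cytometry gave percent CD69-positive cells, from which IC50 values were calculated.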

[1] = CD69-positive, CD20-positive cells after anti-IgM stimulation, human whole blood, 20 hours

Row | SMILES | pIC50 (B cells in human blood; [1]) | melting point | pIC50 (B cells in human blood; Homo sapiens, 20 h)
1 | Cn1nc(-c2cccc(-n3ncc4cc(C(C)(C)C)cc(F)c4c3=O)c2CO)cc(Nc2ccn(C[C@@H](O)CO)n2)c1=O [I-68, 6-tert-Butyl-2-(3-{5-[1-((R)-2,3-dihydroxy-propyl)-1H-pyrazol-3-ylamino]-1-methyl-6-oxo-1,6-dihydro-pyridazin-3-yl}-2-hydroxymethyl-phenyl)-8-fluoro-2H-phthalazin-1-one] | 7.21 | 245 to 250 °C | 
2 | Cn1nc(-c2cccc(-n3ncc4cc(C(C)(C)C)cc(F)c4c3=O)c2CO)cc(Nc2cnc(CNC3CCC3)cn2)c1=O [I-35, 6-tert-Butyl-2-{3-[5-(5-cyclobutylaminomethyl-pyrazin-2-ylamino)-1-methyl-6-oxo-1,6-dihydro-pyridazin-3-yl]-2-hydroxymethyl-phenyl}-8-fluoro-2H-phthalazin-1-one] | 7.13 | 163 to 167 °C | 
3 | Cn1nc(-c2cccc(-n3ncc4cc(C(C)(C)C)cc(F)c4c3=O)c2CO)cc(Nc2ccc(CN3C[C@@H]4C[C@H]3CN4)cn2)c1=O [I-84, 6-tert-Butyl-2-[3-(5-{5-[(1S,4S)-1-(2,5-diaza-bicyclo[2.2.1]hept-2-yl)methyl]-pyridin-2-ylamino}-1-methyl-6-oxo-1,6-dihydro-pyridazin-3-yl)-2-hydroxymethyl-phenyl]-8-fluoro-2H-phthalazin-1-one] | 6.62 | > 250 °C | 
4 | CN1CCN(Cc2cnc(Nc3cc(-c4cccc(-n5ncc6cc(C(C)(C)C)cc(F)c6c5=O)c4CO)nn(C)c3=O)cn2)CC1 [I-37, 6-tert-Butyl-8-fluoro-2-(2-hydroxymethyl-3-{1-methyl-5-[5-(4-methyl-piperazin-1-ylmethyl)-pyrazin-2-ylamino]-6-oxo-1,6-dihydro-pyridazin-3-yl}-phenyl)-2H-phthalazin-1-one] | 7.08 | 215 to 218 °C | 
5 | Cn1nc(-c2cccc(-n3ncc4cc(C(C)(C)C)cc(F)c4c3=O)c2CO)cc(Nc2ccc(S(C)(=O)=O)cn2)c1=O [I-3, 6-tert-Butyl-8-fluoro-2-[2-hydroxymethyl-3-[5-(5-methanesulfonyl-pyridin-2-ylamino)-1-methyl-6-oxo-1,6-dihydro-pyridazin-3-yl]-phenyl}-2H-phthalazin-1-one] |  | 225 to 230 °C | 7.35
6 | CN(C)CCOc1cnc(Nc2cc(-c3cccc(-n4ncc5cc(C(C)(C)C)cc(F)c5c4=O)c3CO)nn(C)c2=O)cn1 [I-36, 6-tert-Butyl-2-(3-{5-[5-(2-dimethylamino-ethoxy)-pyrazin-2-ylamino]-1-methyl-6-oxo-1,6-dihydro-pyridazin-3-yl}-2-hydroxymethyl-phenyl)-8-fluoro-2H-phthalazin-1-one] |  | 185 to 190 °C | 
7 | Cn1nc(-c2cccc(-n3ncc4cc(C(C)(C)C)cc(F)c4c3=O)c2CO)cc(Nc2ccn(CC(C)(C)O)n2)c1=O [I-70, 6-tert-Butyl-8-fluoro-2-(2-hydroxymethyl-3-{5-[1-(2-hydroxy-2-methyl-propyl)-1H-pyrazol-3-ylamino]-1-methyl-6-oxo-1,6-dihydro-pyridazin-3-yl}-phenyl)-2H-phthalazin-1-one] | 6.93 | 165 to 170 °C | 
8 | Cn1nc(-c2cccc(-n3ncc4cc(C(C)(C)C)cc(F)c4c3=O)c2CO)cc(Nc2cnc(C(F)(F)F)cn2)c1=O [I-11, 6-tert-butyl-8-fluoro-2-{2-hydroxymethyl-3-[1-methyl-6-oxo-5-(5-trifluoromethyl-pyrazin-2-ylamino)-1,6-dihydro-pyridazin-3-yl]-phenyl}-2H-phthalazin-1-one] |  | 250 to 254 °C | 
9 | Cn1nc(-c2cccc(-n3ccc4cc(C(C)(C)C#N)cc(F)c4c3=O)c2CO)cc(Nc2cc3n(n2)CCN(C2COC2)C3)c1=O [I-79, 2-(8-Fluoro-2-{2-hydroxymethyl-3-[1-methyl-5-(5-oxetan-3-yl-4,5,6,7-tetrahydro-pyrazolo[1,5-a]pyrazin-2-ylamino)-6-oxo-1,6-dihydro-pyridazin-3-yl]-phenyl}-1-oxo-1,2-dihydro-isoquinolin-6-yl)-2-methyl-propionitrile] | 7.22 |  | 
10 | Cn1nc(-c2cccc(N3CCc4cc(C(C)(C)C#N)cc(F)c4C3=O)c2CO)cc(Nc2ccc(OC(C)(C)CN3CCC3)cn2)c1=O [I-78, 2-[2-(3-{5-[5-(2-azetidin-1-yl-1,1-dimethyl-ethoxy)-pyridin-2-ylamino]-1-methyl-6-oxo-1,6-dihydro-pyridazin-3-yl}-2-hydroxymethyl-phenyl)-8-fluoro-1-oxo-1,2,3,4-tetrahydro-isoquinolin-6-yl]-2-methyl-propionitrile] | 7.08 |  | 
11 | Cn1nc(-c2cccc(-n3ncc4cc(C(C)(C)C)cc(F)c4c3=O)c2CO)cc(Nc2cnc([C@H](O)CO)cn2)c1=O [I-57, 6-tert-Butyl-2-(3-{5-[5-((S)-1,2-dihydroxy-ethyl)-pyrazin-2-ylamino]-1-methyl-6-oxo-1,6-dihydro-pyridazin-3-yl}-2-hydroxymethyl-phenyl)-8-fluoro-2H-phthalazin-1-one] |  | 218 to 224 °C | 
12 | Cn1nc(-c2cccc(-n3ncc4cc(C(C)(C)C)cc(F)c4c3=O)c2CO)cc(Nc2ccc(C(=O)N3CCC(O)C3)cn2)c1=O (stereo not shown) [I-54, 6-tert-butyl-8-fluoro-2-(2-(hydroxymethyl)-3-(5-(5-(3-hydroxypyrrolidine-1-carbonyl)pyridin-2-ylamino)-1-methyl-6-oxo-1,6-dihydropyridazin-3-yl)phenyl)phthalazin-1(2H)-one] | 6.98 |  | 

Continued by rising pIC50 (B cells in human blood; [1]), values first:

Row | pIC50 (B cells in human blood; [1]) | melting point | SMILES | pIC50 (B cells in human blood; Homo sapiens, 20 h)
13 | 7.33 | 108 to 110 °C | COCCNCc1ccc(Nc2cc(-c3cccc(-n4ncc5cc(C(C)(C)C)cc(F)c5c4=O)c3CO)nn(C)c2=O)nc1 [I-42, 6-tert-Butyl-8-fluoro-2-[2-hydroxymethyl-3-(5-{5-[(2-methoxy-ethylamino)-methyl]-pyridin-2-ylamino}-1-methyl-6-oxo-1,6-dihydro-pyridazin-3-yl)-phenyl]-2H-phthalazin-1-one] | 
14 | 7.36 | 260 to 265 °C | CN1CCC(c2ccc(Nc3cc(-c4cccc(-n5ncc6cc(C(C)(C)C)cc(F)c6c5=O)c4CO)nn(C)c3=O)nn2)CC1 [I-40, 6-tert-Butyl-8-fluoro-2-(2-hydroxymethyl-3-{1-methyl-5-[6-(1-methyl-piperidin-4-yl)-pyridazin-3-ylamino]-6-oxo-1,6-dihydro-pyridazin-3-yl}-phenyl)-2H-phthalazin-1-one] | 
15 | 7.48 |  | CN1CC2(C1)CN(c1ccc(Nc3cc(-c4cccc(-n5ncc6cc(C(C)(C)C)cc(F)c6c5=O)c4CO)nn(C)c3=O)nc1)C2 [I-22, 6-tert-butyl-8-fluoro-2-(2-hydroxymethyl-3-{1-methyl-5-[5-(6-methyl-2,6-diaza-spiro[3.3]hept-2-yl)-pyridin-2-ylamino]-6-oxo-1,6-dihydro-pyridazin-3-yl}-phenyl)-2H-phthalazin-1-one] | 
16 | 7.51 | 136 to 144 °C | CN(C)CC(C)(C)Oc1ccc(Nc2cc(-c3cccc(-n4ncc5cc(C(C)(C)C)cc(F)c5c4=O)c3CO)nn(C)c2=O)nc1 [I-6, 6-tert-Butyl-2-(3-{5-[5-(2-dimethylamino-1,1-dimethyl-ethoxy)-pyridin-2-ylamino]-1-methyl-6-oxo-1,6-dihydro-pyridazin-3-yl}-2-hydroxymethyl-phenyl)-8-fluoro-2H-phthalazin-1-one] | 
17 | 7.57 |  | CN1CCN(c2ccc(Nc3cc(-c4cccc(-n5ncc6cc(C(C)(C)C)cc(F)c6c5=O)c4CO)nn(C)c3=O)nn2)CC1 [I-45, 6-tert-Butyl-8-fluoro-2-(2-hydroxymethyl-3-{1-methyl-5-[6-(4-methyl-piperazin-1-yl)-pyridazin-3-ylamino]-6-oxo-1,6-dihydro-pyridazin-3-yl}-phenyl)-2H-phthalazin-1-one] | 
18 | 7.68 | 140 to 145 °C | CN(C)CC(C)(C)Oc1ccc(Nc2cc(-c3cccc(-n4ncc5cc(C(C)(C)C)cc(F)c5c4=O)c3CO)nn(C)c2=O)nn1 [I-39, 6-tert-Butyl-2-(3-{5-[6-(2-dimethylamino-1,1-dimethyl-ethoxy)-pyridazin-3-ylamino]-1-methyl-6-oxo-1,6-dihydro-pyridazin-3-yl}-2-hydroxymethyl-phenyl)-8-fluoro-2H-phthalazin-1-one] | 
19 | 7.70 | 170 to 174 °C | CN(C)Cc1ccc(Nc2cc(-c3cccc(-n4ncc5cc(C(C)(C)C)cc(F)c5c4=O)c3CO)nn(C)c2=O)nc1 [I-8, 6-tert-Butyl-2-{3-[5-(5-dimethylaminomethyl-pyridin-2-ylamino)-1-methyl-6-oxo-1,6-dihydro-pyridazin-3-yl]-2-hydroxymethyl-phenyl}-8-fluoro-2H-phthalazin-1-one] | 
20 | 7.72 | 229 to 233 °C | CCNC(C)(C)c1ccc(Nc2cc(-c3cccc(-n4ncc5cc(C(C)(C)C)cc(F)c5c4=O)c3CO)nn(C)c2=O)nc1 [I-1, 6-tert-butyl-2-(3-{5-[5-(1-ethylamino-1-methyl-ethyl)-pyridin-2-ylamino]-1-methyl-6-oxo-1,6-dihydro-pyridazin-3-yl}-2-hydroxymethyl-phenyl)-8-fluoro-2H-phthalazin-1-one] | 
21 | 7.92 | 235 to 240 °C | CN(C)CC(C)(C)Oc1cnc(Nc2cc(-c3cccc(-n4ncc5cc(C(C)(C)C)cc(F)c5c4=O)c3CO)nn(C)c2=O)cn1 [I-38, 6-tert-Butyl-2-(3-{5-[5-(2-dimethylamino-1,1-dimethyl-ethoxy)-pyrazin-2-ylamino]-1-methyl-6-oxo-1,6-dihydro-pyridazin-3-yl}-2-hydroxymethyl-phenyl)-8-fluoro-2H-phthalazin-1-one] | 
22 | 8.30 | 188 to 193 °C | CN1CCn2nc(Nc3cc(-c4cccc(-n5ncc6cc(C(C)(C)C)cc(F)c6c5=O)c4CO)nn(C)c3=O)cc2C1 [I-59] | 
23 | 8.70 |  | CN1CC[C@H](c2ccc(Nc3cc(-c4cccc(-n5ncc6cc(C(C)(C)C)cc(F)c6c5=O)c4CO)nn(C)c3=O)nc2)C1 [I-33, 6-tert-Butyl-8-fluoro-2-(2-hydroxymethyl-3-{1-methyl-5-[5-((R)-1-methyl-pyrrolidin-3-yl)-pyridin-2-ylamino]-6-oxo-1,6-dihydro-pyridazin-3-yl}-phenyl)-2H-phthalazin-1-one] | 
